Legend:
PPARγ = PPARγ activity assay based on PEPCK expression, coded carriers in a shared fluid volume; assay type: cell-based, human; details: four donor samples in a shared fluid volume; four days; FIG. 12
Description: This differentiation may be visualized readily and scored by staining lipid droplets that accumulate in the cytoplasm of the adipocytes during and/or after their differentiation. Furthermore, this adipocyte differentiation and/or activation of PPARγ may be followed by measuring the expression levels (RNA and/or protein) of PPARγ target genes (direct or indirect targets), such as PEPCK (phosphoenolpyruvate carboxykinsae) and/or FABP4 (fatty acid binding protein 4), among others.
Staining was via indirect immunofluorescence. Cells were counterstained with a nuclear dye (Hoechst) for data normalization, here and in other assays. […] Each sample of primary cells corresponds to pre-adipocytes isolated from visceral tissue (samples starting with the letter “V”) or isolated from subcutaneous tissue (samples starting with the letters “SC”) and were supplied by Cambrex. […] Each sample was connected to a distinct class of coded carriers (having a distinct code) to permit identification of the sample after combining the different classes of carrier and samples in a shared volume. […] Lipid accumulation and PEPCK expression were then measured with the samples still disposed in the same microplate wells. […]

[1] = test system: primary human renal proximal tubule epithelial (HRPTE) cells; assay: proliferative response (S-phase index) of primary HRPTE cells; assay type: cell-based; details: HRPTE cells in 96-well microplate wells or on coded carriers; various concentrations; FIG. 6
Description: This example describes how multiplexed analysis using coded carriers may be used to assay the effects of camptothecin on the proliferative response of primary human renal proximal tubule epithelial (HRPTE) cells, in accordance with aspects of the present teachings; see FIG. 6.
Specifically, HRPTE cells are grown directly in wells of a standard 96-well microplate, to three different cell densities (indicated as the stated number of cells), or on coded carriers that optionally may be placed in wells of the microplate. An “S-phase index” (e.g., the fraction of cells in the S-phase of the cell cycle) is used as a measure of cell proliferation. […] This reduction may be particularly significant in assays on primary cells, because primary cells typically are difficult to obtain and maintain.

HRPTE cells = assay: cytotoxicity response (death index, live/dead assay) of HRPTE cells; assay type: cell-based, human; details: HRPTE cells in 96-well microplate wells or on coded carriers; various concentrations; FIG. 7
Description: This example describes how multiplexed analysis using coded carriers may be used to study the cytotoxicity response of HRPTE cells to staurosporine, in accordance with aspects of the present teachings; see FIG. 7.
Specifically, HRPTE cells are grown directly attached to wells of a standard 96-well microplate, or on coded carriers that optionally may be placed in wells of the microplate. A “death index” (e.g., the fraction of observed cells that are dead) may be used as a measure of cytotoxicity. The death index may be computed using any suitable mechanism, such as a fluorescence-based “live/dead assay.” In an exemplary version of the assay, live cells are labeled green using a membrane-permeant calcein AM, which is cleaved by esterases in live cells to yield cytoplasmic green fluorescence, and dead cells are labeled red using a membrane-impermeant ethidium homodimer-1, which passes through the compromised membranes of dead cells to label nucleic acids with red fluorescence. […] This reduction may be particularly significant in assays on primary cells, because primary cells typically are difficult to obtain and maintain.

`COc1ccc2c(c1)c(CC(=O)O)c(C)n2C(=O)c1ccc(Cl)cc1` [Indomethacin, indomethacin] was tested, and the “induction of PEPCK expression as a measure of PPARγ activity” value (PPARγ) was “relatively strong induction”.
With `CC[C@@]1(O)C(=O)OCc2c1cc1n(c2=O)Cc2cc3ccccc3nc2-1` [camptothecin] the “S-phase index (measure of cell proliferation)” value [1] was “S-phase index generally decreases with increasing camptothecin concentration”.
For `CN[C@@H]1C[C@H]2O[C@@](C)([C@@H]1OC)n1c3ccccc3c3c4c(c5c6ccccc6n2c5c31)C(=O)NC4` [staurosporine], the “death index (fraction of dead cells)” value (HRPTE cells) was “generally increases with increasing staurosporine concentration”.
